{
  "source": "paper PMC8537180",
  "about": "“Discovery of a Kojibiose Hydrolase by Analysis of Specificity-Determining Correlated Positions in Glycoside Hydrolase Family 65” (Molecules, 2021)",
  "key": {"[1]": {"biological_target": "T1, MiGP (Mageeibacillus indolicus, UniProt D3R1R5)", "T1 construct": "gene HMPREF0868_0806; codon-optimized gene in pET21a, C-terminal His6-tag, expressed in E. coli BL21(DE3) agp-, Ni-NTA purified; GH65 subgroup 6", "T1 sequence (D3R1R5 1-712)": "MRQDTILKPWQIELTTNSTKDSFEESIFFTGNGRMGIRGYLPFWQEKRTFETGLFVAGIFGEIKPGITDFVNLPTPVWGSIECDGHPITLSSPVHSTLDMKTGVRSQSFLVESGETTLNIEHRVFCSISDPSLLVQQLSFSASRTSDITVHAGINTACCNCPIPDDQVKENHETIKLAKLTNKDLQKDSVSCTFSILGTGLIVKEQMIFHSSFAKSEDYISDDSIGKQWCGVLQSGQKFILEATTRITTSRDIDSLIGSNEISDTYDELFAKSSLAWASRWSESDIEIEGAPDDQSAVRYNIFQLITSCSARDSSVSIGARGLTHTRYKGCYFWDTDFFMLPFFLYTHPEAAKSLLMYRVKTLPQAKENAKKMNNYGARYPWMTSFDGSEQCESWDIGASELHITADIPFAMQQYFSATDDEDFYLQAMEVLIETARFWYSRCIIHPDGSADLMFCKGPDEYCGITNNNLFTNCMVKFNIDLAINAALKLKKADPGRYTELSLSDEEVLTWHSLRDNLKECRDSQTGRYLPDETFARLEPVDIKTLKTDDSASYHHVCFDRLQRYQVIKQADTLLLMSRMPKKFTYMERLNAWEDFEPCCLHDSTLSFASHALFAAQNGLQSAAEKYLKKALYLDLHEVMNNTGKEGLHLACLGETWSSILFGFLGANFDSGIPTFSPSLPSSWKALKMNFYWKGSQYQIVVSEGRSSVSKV", "assay": "phosphomolybdate assay and HPAEC-PAD, synthesis direction", "assay_type": "biochemical", "conditions": "acceptor, minor activity; donor 10 mM βGlc1P; 50 mM MOPS pH 7.0"}, "[2]": {"biological_target": "T2, TbGP (Thermobispora bispora, UniProt D6Y6U5)", "T2 construct": "gene Tbis_2887; codon-optimized gene in pET21a, C-terminal His6-tag, expressed in E. coli BL21(DE3) agp-, Ni-NTA purified; GH65 subgroup 1", "T2 sequence (D6Y6U5 entry or part of it)": "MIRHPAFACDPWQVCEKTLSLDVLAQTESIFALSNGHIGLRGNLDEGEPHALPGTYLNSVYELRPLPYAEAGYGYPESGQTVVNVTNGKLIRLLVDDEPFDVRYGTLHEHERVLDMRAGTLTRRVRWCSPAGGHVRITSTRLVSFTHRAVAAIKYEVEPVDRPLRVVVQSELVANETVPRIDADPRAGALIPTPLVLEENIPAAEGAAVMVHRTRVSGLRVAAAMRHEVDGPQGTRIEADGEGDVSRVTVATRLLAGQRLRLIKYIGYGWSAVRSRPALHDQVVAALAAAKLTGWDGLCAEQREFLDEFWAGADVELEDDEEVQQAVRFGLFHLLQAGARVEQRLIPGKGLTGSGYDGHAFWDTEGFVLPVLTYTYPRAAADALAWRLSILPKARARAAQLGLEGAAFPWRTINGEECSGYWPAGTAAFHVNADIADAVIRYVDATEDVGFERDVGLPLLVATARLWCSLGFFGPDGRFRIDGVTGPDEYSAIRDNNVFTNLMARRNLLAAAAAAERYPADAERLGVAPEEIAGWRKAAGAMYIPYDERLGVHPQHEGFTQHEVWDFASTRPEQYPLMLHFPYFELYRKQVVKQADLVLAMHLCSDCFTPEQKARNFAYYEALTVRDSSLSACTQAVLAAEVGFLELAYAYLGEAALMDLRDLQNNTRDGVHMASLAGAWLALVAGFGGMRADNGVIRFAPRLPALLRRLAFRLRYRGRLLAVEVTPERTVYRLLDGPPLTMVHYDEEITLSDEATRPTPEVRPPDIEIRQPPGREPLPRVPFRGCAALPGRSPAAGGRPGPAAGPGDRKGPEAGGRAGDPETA", "assay": "phosphomolybdate assay and HPAEC-PAD, synthesis direction", "assay_type": "biochemical", "conditions": "50 mM MOPS pH 7.0, trehalose formed"}, "[3]": {"biological_target": "T3, CaGP (Caldithrix abyssi, UniProt H1XSN4)", "T3 construct": "gene Calab_2975; codon-optimized gene in pET21a, C-terminal His6-tag, expressed in E. coli BL21(DE3) agp-, Ni-NTA purified; GH65 subgroup 22", "T3 sequence (H1XSN4 entry or part of it)": "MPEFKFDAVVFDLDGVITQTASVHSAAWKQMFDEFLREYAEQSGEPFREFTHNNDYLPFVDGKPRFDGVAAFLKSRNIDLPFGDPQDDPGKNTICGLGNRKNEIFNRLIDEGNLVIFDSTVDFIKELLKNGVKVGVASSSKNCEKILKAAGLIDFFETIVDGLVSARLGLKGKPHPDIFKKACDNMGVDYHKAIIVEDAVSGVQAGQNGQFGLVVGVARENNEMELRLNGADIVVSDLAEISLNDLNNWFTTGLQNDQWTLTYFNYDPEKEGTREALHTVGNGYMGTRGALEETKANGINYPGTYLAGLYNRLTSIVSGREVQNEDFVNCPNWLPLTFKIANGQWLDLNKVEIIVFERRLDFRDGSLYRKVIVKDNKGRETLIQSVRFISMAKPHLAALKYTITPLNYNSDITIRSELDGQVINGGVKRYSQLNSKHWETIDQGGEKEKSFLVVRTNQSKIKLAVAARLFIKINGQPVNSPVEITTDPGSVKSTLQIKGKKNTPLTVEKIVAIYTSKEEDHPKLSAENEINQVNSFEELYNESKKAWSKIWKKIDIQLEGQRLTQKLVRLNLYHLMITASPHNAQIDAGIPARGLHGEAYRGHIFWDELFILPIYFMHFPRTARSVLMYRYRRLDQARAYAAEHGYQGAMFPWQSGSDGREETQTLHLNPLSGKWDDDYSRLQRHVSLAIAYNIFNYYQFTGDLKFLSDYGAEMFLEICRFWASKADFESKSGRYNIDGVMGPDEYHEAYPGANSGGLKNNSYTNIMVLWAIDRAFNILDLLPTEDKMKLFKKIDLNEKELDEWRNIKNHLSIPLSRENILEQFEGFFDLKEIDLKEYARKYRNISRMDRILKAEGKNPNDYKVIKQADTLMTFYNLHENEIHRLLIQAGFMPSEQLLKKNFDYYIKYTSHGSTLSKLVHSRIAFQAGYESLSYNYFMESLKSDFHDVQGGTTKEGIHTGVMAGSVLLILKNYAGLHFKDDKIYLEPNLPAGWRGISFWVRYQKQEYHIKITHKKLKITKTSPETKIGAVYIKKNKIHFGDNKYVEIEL", "assay": "phosphomolybdate assay and HPAEC-PAD, synthesis direction", "assay_type": "biochemical", "conditions": "50 mM MOPS pH 7.0"}, "[4]": {"biological_target": "T4, ChGP (Caldicellulosiruptor hydrothermalis, UniProt E4Q9G1)", "T4 construct": "gene Calhy_0070; codon-optimized gene in pET21a, C-terminal His6-tag, expressed in E. coli BL21(DE3) agp-, Ni-NTA purified; GH65 subgroup 4", "T4 sequence (E4Q9G1 entry or part of it)": "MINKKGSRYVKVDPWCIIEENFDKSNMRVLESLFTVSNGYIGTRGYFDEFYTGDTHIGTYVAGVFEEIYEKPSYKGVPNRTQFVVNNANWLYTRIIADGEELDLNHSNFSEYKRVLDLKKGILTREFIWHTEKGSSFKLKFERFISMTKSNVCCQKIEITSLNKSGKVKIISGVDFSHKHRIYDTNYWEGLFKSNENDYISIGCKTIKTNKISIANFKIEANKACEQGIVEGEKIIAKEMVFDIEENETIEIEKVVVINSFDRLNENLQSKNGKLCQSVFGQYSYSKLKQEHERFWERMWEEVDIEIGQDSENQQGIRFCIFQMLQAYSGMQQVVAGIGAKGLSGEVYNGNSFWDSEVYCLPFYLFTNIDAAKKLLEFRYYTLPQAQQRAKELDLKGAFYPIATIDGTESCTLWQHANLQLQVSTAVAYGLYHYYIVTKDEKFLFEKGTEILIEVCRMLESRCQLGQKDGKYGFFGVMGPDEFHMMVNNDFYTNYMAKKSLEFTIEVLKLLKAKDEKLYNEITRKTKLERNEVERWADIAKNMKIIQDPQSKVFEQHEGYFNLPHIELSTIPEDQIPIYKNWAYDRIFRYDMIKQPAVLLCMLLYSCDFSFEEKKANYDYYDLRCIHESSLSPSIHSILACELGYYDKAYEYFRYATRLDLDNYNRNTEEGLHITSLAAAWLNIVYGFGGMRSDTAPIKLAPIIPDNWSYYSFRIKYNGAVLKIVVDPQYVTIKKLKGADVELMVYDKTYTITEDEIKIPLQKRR", "assay": "phosphomolybdate assay and HPAEC-PAD, synthesis direction", "assay_type": "biochemical", "conditions": "acceptor; donor βGlc1P; 50 mM MOPS pH 7.0"}, "[5]": {"biological_target": "T5, HoGP (Halothermothrix orenii, UniProt B8D049)", "T5 construct": "gene Hore_00420", "T5 sequence (B8D049 whole entry)": "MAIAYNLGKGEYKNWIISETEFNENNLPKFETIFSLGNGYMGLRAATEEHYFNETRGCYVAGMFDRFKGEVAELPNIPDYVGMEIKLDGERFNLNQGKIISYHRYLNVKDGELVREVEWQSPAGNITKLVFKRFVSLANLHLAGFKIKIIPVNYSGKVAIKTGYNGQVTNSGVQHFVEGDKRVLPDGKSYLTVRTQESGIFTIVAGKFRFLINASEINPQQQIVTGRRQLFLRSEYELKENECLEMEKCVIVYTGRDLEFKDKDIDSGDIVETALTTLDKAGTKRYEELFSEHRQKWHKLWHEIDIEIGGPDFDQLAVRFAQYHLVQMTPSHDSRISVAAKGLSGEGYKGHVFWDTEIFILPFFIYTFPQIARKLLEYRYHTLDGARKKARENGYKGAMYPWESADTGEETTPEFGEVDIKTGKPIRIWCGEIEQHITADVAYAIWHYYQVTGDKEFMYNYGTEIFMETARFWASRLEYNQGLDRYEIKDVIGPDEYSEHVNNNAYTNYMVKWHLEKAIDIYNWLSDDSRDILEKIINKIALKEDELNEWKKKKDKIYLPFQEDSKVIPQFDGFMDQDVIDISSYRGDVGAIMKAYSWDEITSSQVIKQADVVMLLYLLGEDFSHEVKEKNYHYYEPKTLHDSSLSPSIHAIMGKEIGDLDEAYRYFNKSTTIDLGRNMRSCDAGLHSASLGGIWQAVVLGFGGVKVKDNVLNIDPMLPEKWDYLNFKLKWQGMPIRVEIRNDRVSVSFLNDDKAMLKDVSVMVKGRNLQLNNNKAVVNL", "conditions": "50 mM MOPS pH 7.0"}},
  "note": "Where two headings read alike, the source gives them in different places.",
  "data": [
    {"smiles": "OC[C@H]1OC(O)[C@H](O)[C@@H](O)[C@@H]1O", "note": "(some centres unmarked) [glucose]", "values": [
      {"measurement": "phosphomolybdate assay and HPAEC-PAD, synthesis direction", "setting": "[1]", "result": "Apart from minor activity on glucose and galactose, MiGP prefers α-glucosidic disaccharides"},
      {"measurement": "phosphomolybdate assay and HPAEC-PAD, synthesis direction", "setting": "[2]; donor βGlc1P", "result": "In a reaction mixture of glucose and βGlc1P, TbGP produced trehalose"}
    ]},
    {"smiles": "O=P(O)(O)OC[C@H]1OC(O)[C@H](O)[C@@H](O)[C@@H]1O", "note": "(some centres unmarked) [glucose 6-phosphate]", "values": [
      {"measurement": "phosphomolybdate assay and HPAEC-PAD, synthesis direction", "setting": "[3]; donor βGlc1P", "result": "trehalose 6-phosphate was produced from βGlc1P and glucose 6-phosphate"}
    ]},
    {"smiles": "OC[C@H]1O[C@H](O[C@H]2[C@H](O)[C@@H](CO)OC(O)[C@@H]2O)[C@H](O)[C@@H](O)[C@@H]1O", "note": "(some centres unmarked) [nigerose]", "values": [
      {"measurement": "phosphomolybdate assay and HPAEC-PAD, synthesis direction", "setting": "[4]", "result": "ChGP elongated nigerose, and other disaccharides, to form α-1,3-oligoglucans"}
    ]},
    {"smiles": "O=P(O)(O)O[C@@H]1O[C@H](CO)[C@@H](O)[C@H](O)[C@H]1O", "note": "[βGlc1P]", "values": [
      {"measurement": "phosphomolybdate assay and HPAEC-PAD, synthesis direction", "setting": "[2]; acceptor glucose", "result": "In a reaction mixture of glucose and βGlc1P, TbGP produced trehalose"},
      {"measurement": "phosphomolybdate assay and HPAEC-PAD, synthesis direction", "setting": "[3]; acceptor glucose 6-phosphate", "result": "trehalose 6-phosphate was produced from βGlc1P and glucose 6-phosphate"},
      {"measurement": "phosphomolybdate assay and HPAEC-PAD, synthesis direction", "setting": "[5]; acceptor kojibiose", "result": "In a reaction mixture that contained both kojibiose and βGlc1P, phosphorolytic and synthetic reactions co-occur"}
    ]},
    {"smiles": "OC[C@H]1O[C@H](O[C@H]2C(O)O[C@H](CO)[C@@H](O)[C@@H]2O)[C@H](O)[C@@H](O)[C@@H]1O", "note": "(some centres unmarked) [kojibiose]", "values": [
      {"measurement": "phosphomolybdate assay and HPAEC-PAD, synthesis direction", "setting": "[5]; phosphorolysis and acceptor with βGlc1P", "result": "both breaking kojibiose down to glucose and βGlc1P and using it as acceptor"}
    ]}
  ]
}
